These results are taken from article PMC5324060, “Evolutionary, computational, and biochemical studies of the salicylaldehyde dehydrogenases in the naphthalene degradation pathway” (Scientific Reports, 2017).

One assay concerns the target T1, SALDan V153A (Alteromonas naphthalenivorans, UniProt F5Z5S7, V153A).
T1 sequence (F5Z5S7 1-483 V153A): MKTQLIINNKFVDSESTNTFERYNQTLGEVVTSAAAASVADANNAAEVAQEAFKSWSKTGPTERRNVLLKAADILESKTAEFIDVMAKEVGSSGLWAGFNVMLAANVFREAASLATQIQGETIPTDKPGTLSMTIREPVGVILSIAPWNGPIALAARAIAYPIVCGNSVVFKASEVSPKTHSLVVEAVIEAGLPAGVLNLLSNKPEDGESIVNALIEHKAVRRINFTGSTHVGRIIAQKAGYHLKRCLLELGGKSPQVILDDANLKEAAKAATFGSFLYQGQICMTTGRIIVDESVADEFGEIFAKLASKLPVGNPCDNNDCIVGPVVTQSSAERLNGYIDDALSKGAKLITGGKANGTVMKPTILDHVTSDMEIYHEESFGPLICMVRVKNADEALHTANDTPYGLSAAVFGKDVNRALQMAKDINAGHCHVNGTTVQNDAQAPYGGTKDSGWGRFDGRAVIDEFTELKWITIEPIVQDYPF
The assay is described as follows: Kinetics assay of SALDan mutant V153A. The class given is biochemical. The settings on record: V153A mutant versus wild-type. From the text: (§1) The primers used for the single amino acid mutant were as follows: N149A, forward primer, 5′-ATAGCACCGTGGGCCGGGCCTATTGTATTA-3′; reverse primer, 5′-TAATACAATAGGCCCGGCCCACGGTGCTAT-3′; V153A, forward primer, 5′-AATGGGCCTATTGTATTAGCGGCTCGG-3′; reverse primer, 5′-CCGAGCCGCTAATACAATAGGCCCATT-3′; E175A, forward primer, 5′-[…]-3′, reverse primer, 5′-GTTGGGACAGTCTTCCAGCCC-3′; E175A, forward primer, 5′-ATGCTCCACCAAATTGGGCAC-3′; reverse primer, 5′-TTTAGGACTTACTTCTGAAGCTTTAAA-3′. The PCR was performed using Pfu polymerase, and the cycling parameters were: 95 °C for 5 min (one cycle), 95 °C for 30 s, and 68 °C for 12 min (12 cycles). After amplification, the PCR mixture was digested with DpnI and then transformed into E. coli BL21(DE3) by electroporation. The mutants were confirmed by DNA sequencing.
The activity of the purified proteins was determined using SAL as a substrate. […] The SALDan activity was monitored as the rate of appearance of NADH at 340 nm spectrophotometrically. The specific activity of the enzyme (units.mg^−1.min^−1) was expressed as the amount of enzyme required to produce 1 μM of NADH under the assay conditions. The influence of pH on the activity was determined using the protocol described above, with the exception of replacing the Tris-HCl buffer with 50 mM sodium acetate (pH 3.0–5.0), 50 mM 2-(N-morpholino)ethanesulfonic acid (pH 5.0–7.5), 50 mM HEPES (pH 8.0–8.5), 50 mM glycine (pH 9.0–10.0), or 50 mM sodium phosphate (pH 11.0)[52]. […]
(§2) For kinetic studies of aldehydes, the initial velocities of the enzymatic reactions were examined by varying the concentrations of various aromatic as well as aliphatic aldehydes in the presence of NAD^+ (100 μM) and the enzyme (0.1 μM) under optimal conditions. For substrates that absorb at 340 nm, thus interfering with the calculation of the initial rate, their molar coefficients (ε) were calculated as described previously[64] and are presented in Table S1. The apparent kinetic parameters were calculated using the equation: […]

Another assay concerns the target T2, SALDan E175A (Alteromonas naphthalenivorans, UniProt F5Z5S7, E175A).
T2 sequence (F5Z5S7 1-483 E175A): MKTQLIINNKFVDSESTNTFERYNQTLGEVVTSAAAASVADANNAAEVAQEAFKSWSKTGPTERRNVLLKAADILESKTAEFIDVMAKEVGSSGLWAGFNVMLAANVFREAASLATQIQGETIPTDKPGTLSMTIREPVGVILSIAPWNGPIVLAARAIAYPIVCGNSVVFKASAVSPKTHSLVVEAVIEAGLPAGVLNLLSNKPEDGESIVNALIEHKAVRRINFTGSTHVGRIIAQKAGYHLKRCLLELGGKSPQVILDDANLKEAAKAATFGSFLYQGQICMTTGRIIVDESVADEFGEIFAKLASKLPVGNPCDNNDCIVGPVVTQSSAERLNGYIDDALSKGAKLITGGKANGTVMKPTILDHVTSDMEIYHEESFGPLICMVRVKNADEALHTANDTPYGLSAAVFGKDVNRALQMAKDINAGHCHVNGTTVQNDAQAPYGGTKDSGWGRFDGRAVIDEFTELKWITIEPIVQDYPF
The assay is described as follows: Kinetics assay of SALDan mutant E175A. The class given is biochemical.
Source text: as §1
The activity of the purified proteins was determined using SAL as a substrate. A reaction volume of 500 μL was prepared in a microfuge tube containing purified SALDan (0.1 μM), SAL (100 μM), and NAD^+ (100 μM) dissolved in 50 mM HEPES (pH 7.5) containing 150 mM NaCl. The SALDan activity was monitored as the rate of appearance of NADH at 340 nm spectrophotometrically. The specific activity of the enzyme (units.mg^−1.min^−1) was expressed as the amount of enzyme required to produce 1 μM of NADH under the assay conditions. The influence of pH on the activity was determined using the protocol described above, with the exception of replacing the […] buffer with 50 mM sodium acetate (pH 3.0–5.0), 50 mM 2-(N-morpholino)ethanesulfonic acid (pH 5.0–7.5), 50 mM HEPES (pH 8.0–8.5), 50 mM glycine (pH 9.0–10.0), or 50 mM sodium phosphate (pH 11.0)[52]. All assays were performed at the optimal temperature. To determine the influence of temperature on the enzymatic activity, the reactions were performed at 15, 20, 25, 30, 35, 40, and 45 °C, respectively.
as §2
The apparent kinetic parameters for NAD^+ were determined at a fixed concentration of SAL (50 μM) and a varying concentration of NAD^+ (0–500 μM). The apparent Km and Vmax values were calculated by using the equation: […]
All the activity data were determined by three separate experiments with at least three technical replicates.

Consider `NC(=O)c1ccc[n+]([C@@H]2O[C@H](COP(=O)([O-])OP(=O)(O)OC[C@H]3O[C@@H](n4cnc5c(N)ncnc54)[C@H](O)[C@@H]3O)[C@@H](O)[C@H]2O)c1` [NAD^+, nicotinamide adenine dinucleotide], for which the “effect on the kinetic parameters” value at SALDan V153A was “no significant effect”. At SALDan E175A (E175A mutant versus wild-type), the “change of apparent Km value” is on record as “increased by about two times” and the “change of kcat/Km (catalytic efficiency)” value is reported as “decreased by four times”. The “increase of Km” value on SALDan E175A (mutation of Glu175 versus wild-type (Discussion)) was 5 fold.
